Experimental data taken from the supplement of paper PMC10307832.

Tests used:
Assay in all cases: relative viability (nuclei count vs DMSO), 5 days (fraction); higher = more cells survive
[1] = compound: Cn1cc(-c2cnc3ccc4ccc(CS(=O)(=O)NCc5ccccn5)cc4c(=O)c3c2)cn1 [MK-8033] + Cc1cc(Nc2cc(N3CCN(C)CC3)nc(Sc3ccc(NC(=O)C4CC4)cc3)n2)n[nH]1 [Tozasertib] (partner 0.1 µM)
How it was run: (§1)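 Cells from lung cancer lines were seeded into 1536-well plates and, one day later, dosed by pin tool. Treatments were either a single drug or a fixed dose of an anchor drug with five library-drug doses (not always all listed) in √10 steps. After 5 days, nuclei were stained in a one-step fixation (final 0.05% Triton X-100, 1% formaldehyde, 1 ug/ml Hoechst) and counted on 4× images, and relative viability is the treated-to-vehicle nuclei ratio, as the median of duplicate plates.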

[2] = compound: CC[C@@H](C)CNCC(=O)N1CCC2=C([C@@H]1COC3=CC=CC(=C3)C)C=CS2 [RU-SKI 43] + Nc1nc2[nH]cc(CCc3ccc(C(=O)N[C@@H](CCC(=O)O)C(=O)O)cc3)c2c(=O)[nH]1 [Pemetrexed] (partner 0.2 µM)
How it was run: as §1

[3] = compound: CC[C@@H](C)CNCC(=O)N1CCC2=C([C@@H]1COC3=CC=CC(=C3)C)C=CS2 [RU-SKI 43] + O=C(CCCCCCC(=O)Nc1ccccc1)NO [Vorinostat] (partner 1 µM)
How it was run: as §1

[4] = compound: Cn1cc(-c2cnc3ccc4ccc(CS(=O)(=O)NCc5ccccn5)cc4c(=O)c3c2)cn1 [MK-8033] + O=C(c1cc(Cc2n[nH]c(=O)c3ccccc23)ccc1F)N1CCN(C(=O)C2CC2)CC1 [Olaparib] (partner 8 µM)
How it was run: as §1

Row | Cell Line | relative viability ([1]; first compound 0.02 µM) | relative viability ([1]; first compound 0.06325 µM) | relative viability ([1]; first compound 0.2 µM) | relative viability ([1]; first compound 0.6325 µM) | relative viability ([1]; first compound 2 µM) | relative viability ([2]; first compound 0.1 µM) | relative viability ([2]; first compound 0.3162 µM) | relative viability ([2]; first compound 1 µM) | relative viability ([2]; first compound 3.162 µM) | relative viability ([2]; first compound 10 µM) | relative viability ([3]; first compound 0.1 µM) | relative viability ([3]; first compound 0.3162 µM) | relative viability ([3]; first compound 1 µM) | relative viability ([3]; first compound 3.162 µM) | relative viability ([3]; first compound 10 µM) | relative viability ([4]; first compound 0.02 µM) | relative viability ([4]; first compound 0.06325 µM) | relative viability ([4]; first compound 0.2 µM) | relative viability ([4]; first compound 0.6325 µM) | relative viability ([4]; first compound 2 µM)
1 | ChaGo-K-1 | 0.216 | 0.227 | 0.224 | 0.218 | 0.206 | 0.268 | 0.299 | 0.249 | 0.284 | 0.265 | 0.759 | 0.731 | 0.853 | 0.77 | 0.762 | 0.442 | 0.412 | 0.415 | 0.433 | 0.372
2 | COR-L23 | 0.198 | 0.187 | 0.164 | 0.164 | 0.117 | 0.203 | 0.202 | 0.205 | 0.22 | 0.189 | 0.427 | 0.376 | 0.532 | 0.499 | 0.387 | 0.348 | 0.328 | 0.378 | 0.367 | 0.311
3 | NCI-H2347 | 0.545 | 0.574 | 0.584 | 0.552 | 0.436 | 0.404 | 0.513 | 0.431 | 0.52 | 0.538 | 0.511 | 0.621 | 0.674 | 0.595 | 0.566 | 0.564 | 0.573 | 0.535 | 0.617 | 0.575
4 | LU99A | 0.268 | 0.262 | 0.281 | 0.268 | 0.269 | 0.164 | 0.207 | 0.168 | 0.19 | 0.162 | 0.476 | 0.558 | 0.479 | 0.447 | 0.359 | 0.28 | 0.222 | 0.223 | 0.266 | 0.22
5 | COR-L 105 | 0.311 | 0.377 | 0.338 | 0.349 | 0.345 | 1.11 | 1.12 | 1.17 | 1.04 | 1.03 | 0.8 | 0.913 | 0.796 | 0.886 | 0.895 | 0.846 | 0.673 | 0.7 | 0.637 | 0.701
6 | PC-3 [JPC-3] | 0.856 | 0.825 | 0.806 | 0.878 | 0.787 | 1.09 | 0.917 | 1.37 | 1.15 | 1.2 | 0.947 | 0.727 | 0.982 | 0.651 | 0.876 | 1.08 | – | 1.04 | 1.16 | 1.09
7 | NCI-H2009 | 0.776 | 0.703 | 0.694 | 0.707 | 0.737 | 1.06 | 1.17 | 1.14 | 1.06 | 1.08 | 0.692 | 0.757 | 0.751 | 0.693 | 0.679 | 0.716 | 0.683 | 0.632 | 0.712 | 0.707
8 | HCC-366 | 0.114 | 0.131 | 0.0893 | 0.102 | 0.0504 | 0.187 | 0.151 | 0.154 | 0.219 | 0.228 | 0.276 | 0.493 | 0.439 | 0.438 | 0.328 | 0.361 | 0.344 | 0.328 | 0.34 | 0.323
9 | HARA | 0.104 | 0.0979 | 0.111 | 0.136 | 0.112 | 0.265 | 0.264 | 0.259 | 0.277 | 0.254 | 0.568 | 0.52 | 0.485 | 0.517 | 0.548 | 0.558 | 0.542 | 0.761 | 0.732 | 0.639
10 | HCC-827 | 0.412 | – | 0.402 | 0.4 | 0.401 | 0.289 | 0.267 | 0.264 | 0.265 | 0.253 | 0.768 | 0.81 | 1.04 | 0.783 | 0.885 | 0.653 | – | 0.644 | 0.561 | 0.488
11 | LXF-289 | 0.187 | 0.148 | 0.157 | 0.203 | 0.179 | 0.924 | 0.862 | 0.939 | 0.902 | 0.999 | 0.725 | 0.784 | 0.796 | 0.634 | 0.84 | 1.06 | 1.05 | 1.02 | 1.12 | 1.03
12 | NCI-H460 | 0.392 | 0.443 | 0.387 | 0.377 | 0.108 | 0.0581 | 0.0578 | 0.0612 | 0.0618 | 0.0606 | 0.81 | 1.3 | 0.787 | 0.75 | 0.565 | 0.419 | 0.462 | 0.36 | 0.498 | 0.413
13 | NCI-H2023 | 0.374 | 0.273 | 0.251 | 0.221 | 0.122 | 0.249 | 0.259 | 0.286 | 0.21 | 0.243 | 0.742 | 0.918 | 0.772 | 0.815 | 0.602 | 0.534 | 0.415 | 0.439 | 0.493 | 0.396
14 | PC-14 | 0.607 | 0.539 | 0.482 | 0.594 | 0.519 | 0.132 | 0.13 | 0.133 | 0.151 | 0.13 | 0.661 | 0.69 | 0.739 | 0.86 | 0.585 | 0.249 | 0.27 | 0.299 | 0.321 | 0.271
15 | NCI-H1734 | 0.243 | 0.215 | 0.3 | 0.261 | 0.242 | 0.44 | 0.406 | 0.426 | 0.41 | 0.407 | 0.821 | 0.833 | 0.81 | 0.852 | 0.701 | 0.644 | 0.553 | 0.546 | 0.615 | 0.648
16 | HOP-62 | 0.406 | 0.339 | 0.359 | 0.352 | 0.344 | 0.327 | 0.292 | 0.344 | 0.334 | 0.284 | 0.563 | 0.693 | 0.632 | 0.724 | 0.639 | 0.407 | 0.51 | 0.417 | 0.399 | 0.471
